Tests used:
T-cells = test: Stimulation of T-cell proliferation following primary induction by TCR activation; assay type: cell-based
IL-2 = test: Augmentation of IL-2 production following TCR activation of PBMC; assay type: cell-based
IFN-γ = test: Augmentation of IFN-γ production following TCR activation of T-cells; assay type: cell-based
IL-10 = test: LPS-stimulated production of IL-10 by PBMC; assay type: cell-based
Beagle dogs = test: Cardiovascular and respiratory function in anesthetized dogs; conditions: anesthetized Beagle dogs, 2, 10 and 20 mg/kg infusion via jugular vein, all doses
[1] = Form A: among anhydrous polymorphs; Form E: in aqueous solvent systems; cited from earlier work

With `Nc1cccc2c1CN(C1CCC(=O)NC1=O)C2=O` (stereo not shown) as the molecule, how does the “Potency relative to thalidomide in stimulating proliferation of T-cells” value (T-cells) read?
The value was 50-100 times.

And the “Potency relative to thalidomide in augmenting production of IL-2” value (IL-2)?
Its value is 50-100 times.

And the “Potency relative to thalidomide in augmenting production of IFN-γ” value (IFN-γ)?
Its value is 50-100 times.

What about the “Effect on production of IL-10 by PBMC” value (IL-10) of the same molecule?
Its value is “increased production”.

And the “Cardiovascular and respiratory changes compared to vehicle control” value (Beagle dogs)?
Its value is “minimal”.

Which “Relative stability of polymorph” value [1] does the source give for `Nc1cccc2c1CN(C1CCC(=O)NC1=O)C2=O` (stereo not shown) [Form A, 3-(4-amino-1-oxo-1,3 dihydro-isoindol-2-yl)-piperidene-2,6-dione] here?
Its value is “most thermodynamically stable anhydrous polymorph”.

With `Nc1cccc2c1CN(C1CCC(=O)NC1=O)C2=O` (stereo not shown) [Form E, 3-(4-amino-1-oxo-1,3 dihydro-isoindol-2-yl)-piperidene-2,6-dione] as the molecule, how does the “Relative stability of polymorph” value [1] read?
The value was “most stable form”.
